In US12678412B2, “Substituted tolans for the modulation of microbial colonization” (BioMendics, LLC, priority 2017, dated 2026):

Legend:
MRSA USA 400 biofilm = assay: Biofilm inhibition assay (prevention of biofilm formation); assay type: cell-based, Staphylococcus aureus; settings: overnight 37° C.
Description: Proliferating cultures of Methicillin Resistant Staphylococcus aureus (MRSA, USA 400) were used in a colony forming assay. Frozen stock cultures of MRSA USA 400 were thawed and grown overnight in tryptic soy broth (TSB) with shaking at 37° C. The overnight culture (0.5-1.0 mL) was added to 100 mL TSB and grown at 37° C. with shaking and monitored for an optical density of 0.55-0.60 in order to obtain a final inoculum suspension of approximately 10^8 CFU/mL.
For the biofilm inhibition assay, 100 μL of MRSA USA 400 inoculum (10^8 CFU/mL) was plated with 100 μL of each BM3103 drug concentration in a 96 well plate. A 0.1 M stock of BM3103 was dissolved in ethanol and serially diluted in TSB across a 96 well plate to obtain final concentrations of 1 mM to 0.002 mM. The drug treated inoculum grew overnight at 37° C. without shaking.

[1] = system: Methicillin Resistant Staphylococcus aureus (MRSA USA 300); assay: Colony forming assay, spread plate, MRSA USA 300; assay type: cell-based; settings: for Reduction of MRSA USA 300 counts: 24 h
Description: A fresh culture of pathogenic isolate was used in these examples. The bacterial strains used were Methicillin Resistant Staphylococcus aureus (MRSA USA 300), Pseudomonas aeruginosa ATCC 27312, and Candida albicans ATCC 64550.
FIG. 5 illustrates the spread plate method used in these examples. In sum, agar plates were made, bacteria were diluted to 10^6 or 10^8 CFU/mL, bacteria and drug were mixed together and then plated. Glass spreading beads were used because they give a better bacterial spread. Plates were incubated for 24 hrs then the colonies that formed were counted.
Proliferating cultures of Methicillin Resistant Staphylococcus aureus (MRSA, USA 300) were used in a colony forming assay. Freeze-dried bacteria culture of MRSA was recovered by swabbing a 3-cm diameter growth area and resuspending it to obtain a final inoculum suspension of approximately 10^8 CFU/mL. The concentration was confirmed using historical optical density measurements. The total compound BM3103 was suspended in a 70% v/v alcohol gel formulation (Formulation A) before the introduction of bacteria, with the vehicle consisting of solely the 70% v/v alcohol gel. MRSA at 10^8 CFU/mL was challenged with equal parts of a high, medium, and low dose of BM3103, vehicle formulation, positive control (Tobramycin, 600 μg/mL), or untreated control (phosphate buffered saline). The inoculum was plated on Tryptic Soy Broth plates at 37° C. for 24 h. Plates were photographed and counted. The treatment for each experiment was done in triplicate, and the experiment was repeated three times, for a total of 9 plates per group.
Colony counts for each treatment were tabulated and the Log of the colony forming units/mL (Log CFU/mL) was determined. The mean and standard deviation of the Log CFU/mL were calculated for each treatment. A one-way analysis of variance was performed at a 95% confidence interval.

S. typhimurium TA97a = assay: Dose range finding colony forming assay, strain TA97a with metabolic activation; assay type: cell-based
Description: A series of dose range finding assays were performed with five bacterial strains, S. typhimurium TA97a, TA98, TA100, TA1535, and E. coli WP2 uvrA pKM101, with and without metabolic activation at three plates per dose. The following doses, along with positive and negative controls, were tested: 5000, 2500, 1250, 500, 250, 125, 50, 20, 10, 5, 2, 1, and 0.2 μg/plate. The plates were evaluated for toxicity (a decrease in plate counts with increasing dose and/or a visible thinning of the background lawn) and for precipitation of the test article. Metabolic activation was included in some samples by adding phenobarbital/benzoflavone-induced rat liver S9 fractions with cofactors (S9 mix). Prior to use, freshly thawed aliquots of rat liver S9 were mixed with a sterile cofactor mix. The S9 mix contains a 10% liver S9 concentration and was refrigerated or stored on ice until used. When testing with metabolic activation, the S9 mix was used in the assay tube in place of phosphate buffer.
Dosing formulations were prepared to deliver all doses in a constant volume of 0.1 mL. The highest dose was prepared from test article weighed to the nearest 0.1 mg and the remaining formulations were prepared as serial dilutions from the high dose stock formulation. Using a permanent marking pen or computer printed labels, assay plates were labeled with the project and study numbers and the date. Assay plates and tubes were labeled with a unique identifier, which was used to match the assay tubes with the properly identified minimal glucose agar plate.
The pre-incubation method was used to perform the assay. The assay mix consisted of 0.1 mL of the test article formulation or control article, 0.5 mL S9 mix or phosphate buffer, and 0.1 mL of bacterial culture. Assay tubes were incubated at 37±1° C. with gentle agitation for 20±1 minutes, then 2.0-2.5 mL top agar was added to the assay mix and the top agar/assay mix poured onto appropriately labeled minimal glucose agar plates. Once the top agar hardened, the plates were inverted and incubated at 37±1° C. for 48±2 hours. Plates were counted with the Sorcerer (v. 2.2)/Ames Study Manager (v. 1.2.4) system from Perceptive Instruments (Suffolk, UK). With this system, plate counts are automatically transferred from the plate imager (Sorcerer) to a Study Manager spreadsheet, and the data are stored in a secure manner on an Oracle database. Some plates were hand counted, e.g., if sample precipitate interferes with automatic counting or toxicity results in the formation of microcolonies, in which case, counts for these plates were entered into the spreadsheet manually. Plates were scored also with the extent of colonization by a post fix code.

In the case of COc1ccc(C#Cc2ccc(O)cc2)cc1 [BM3103, 4-hydroxy-4′-methoxytolan], the “Biofilm formation of MRSA USA 400” value (MRSA USA 400 biofilm; 0.008 mM, FIG. 12B) is reported as “Mild biofilm formation”, the “Biofilm formation of MRSA USA 400” value (MRSA USA 400 biofilm; 0.625 mM, FIG. 12A) is reported as “inhibits biofilm formation of MRSA USA 400 completely” and the “Biofilm formation of MRSA USA 400” value (MRSA USA 400 biofilm; about 0.002 mM, FIGS. 12C-12D) is reported as “no effect on biofilm formation”. For the same compound, the “Concentrations that completely inhibit biofilm formation” value (MRSA USA 400 biofilm) was “above 0.0625 mM”, the “Reduction in MRSA USA 300 counts compared to the positive control” value ([1]; all three doses (0.05, 0.25, 0.5% w/v) vs Tobramycin 600 μg/mL) was “significantly greater reduction” and the “Reduction of MRSA USA 300 counts” value ([1]; high dose 0.5% w/v, 22 mM, alcohol gel) was “approximately 8 fold”. For the same compound, the “Reduction of MRSA USA 300 counts” value ([1]; low dose 0.05% w/v, 2 mM, 70% v/v alcohol gel (Formulation A), compared to vehicle and untreated controls) was “over 6 fold”, the “Reduction of MRSA USA 300 counts” value ([1]; medium dose 0.25% w/v, 11 mM, alcohol gel, compared to vehicle and untreated control) was 7 fold and the Colony forming units/plate (S. typhimurium TA97a; 0.2 μg/plate) was 89.0 colony forming units/plate. The Individual colony counts (S. typhimurium TA97a; 0.2 μg/plate) was 89, the Colony forming units/plate (S. typhimurium TA97a; 1 μg/plate) was 122.0 colony forming units/plate and the Individual colony counts (S. typhimurium TA97a; 1 μg/plate) was 122. For the same compound, the Colony forming units/plate (S. typhimurium TA97a; 2 μg/plate) was 78.0 colony forming units/plate, the Individual colony counts (S. typhimurium TA97a; 2 μg/plate) was 78 and the Colony forming units/plate (S. typhimurium TA97a; 5 μg/plate) was 78.0 colony forming units/plate. The Individual colony counts (S. typhimurium TA97a; 5 μg/plate) was 78, the Colony forming units/plate (S. typhimurium TA97a; 10 μg/plate) was 77.0 colony forming units/plate and the Individual colony counts (S. typhimurium TA97a; 10 μg/plate) was 77.0. For the same compound, the Colony forming units/plate (S. typhimurium TA97a; 20 μg/plate) was 0.0 colony forming units/plate, the Individual colony counts (S. typhimurium TA97a; 20 μg/plate) was 0 and the Colony forming units/plate (S. typhimurium TA97a; 50 μg/plate) was 0.0 colony forming units/plate. For the same compound, the Individual colony counts (S. typhimurium TA97a; 50 μg/plate) was 0, the Colony forming units/plate (S. typhimurium TA97a; 125 μg/plate) was 0.0 colony forming units/plate and the Individual colony counts (S. typhimurium TA97a; 125 μg/plate) was 0. The Colony forming units/plate (S. typhimurium TA97a; 250 μg/plate) was 0.0 colony forming units/plate, the Individual colony counts (S. typhimurium TA97a; 250 μg/plate) was 0 and the Colony forming units/plate (S. typhimurium TA97a; 500 μg/plate) was 0.0 colony forming units/plate. The Individual colony counts (S. typhimurium TA97a; 500 μg/plate) was 0, the Colony forming units/plate (S. typhimurium TA97a; 1250 μg/plate) was 0.0 colony forming units/plate and the Individual colony counts (S. typhimurium TA97a; 1250 μg/plate) was 0. For the same compound, the “Plate postfix code (individual colony counts)” value (S. typhimurium TA97a; 1250 μg/plate) was “A P”, the Colony forming units/plate (S. typhimurium TA97a; 2500 μg/plate) was 0.0 colony forming units/plate and the Individual colony counts (S. typhimurium TA97a; 2500 μg/plate) was 0. For the same compound, the Colony forming units/plate (S. typhimurium TA97a; 5000 μg/plate) was 0.0 colony forming units/plate and the Individual colony counts (S. typhimurium TA97a; 5000 μg/plate) was 0.
